From patent US10562916B2, “Substituted quinoxalines as PDE-10 inhibitors” (SUNOVION PHARMACEUTICALS INC., priority 2010, dated 2020) come the findings set out here.

The assay concerns the target recombinant human PDE-10 enzyme (human PDE-10A) (Homo sapiens (Human), UniProt Q9Y233). In words: PDE-10A enzymatic assay (Molecular Devices IMAP PDE Fluorescence Polarization). The assay is classed as biochemical. Particulars: recombinant human PDE-10, fluorescein-labeled cAMP/cGMP substrate, 40 min at 37° C. As for the experimental part:
In one embodiment, the compounds provided herein were assayed for their ability to inhibit human PDE-10A. In one embodiment, the activities of the compounds were determined using the Molecular Devices IMAP PDE Fluorescence Polarization assay using recombinant human PDE-10 enzyme expressed in a baculoviral system. Briefly, 10 μL of a compound (0.2 nM-20 μM) was added to either a 96-well half area black plate or a 384-well black plate along with 10 μL of Fluorescein-labeled cAMP/cGMP substrate as per manufacturer's instructions and 10 μL of PDE enzyme (activity 0.1 U). Following a 40-minute incubation at 37° C., 60 μL of IMAP binding reagent was added. […] The data was analyzed using Prism Software (GraphPad Inc, San Diego, Calif.).
IC50 (μM) in PDE-10A Enzymatic Assay and EC300 (μM) in Cell-Based Assay.

recombinant human PDE-10 enzyme (human PDE-10A), sequence (Q9Y233 whole entry): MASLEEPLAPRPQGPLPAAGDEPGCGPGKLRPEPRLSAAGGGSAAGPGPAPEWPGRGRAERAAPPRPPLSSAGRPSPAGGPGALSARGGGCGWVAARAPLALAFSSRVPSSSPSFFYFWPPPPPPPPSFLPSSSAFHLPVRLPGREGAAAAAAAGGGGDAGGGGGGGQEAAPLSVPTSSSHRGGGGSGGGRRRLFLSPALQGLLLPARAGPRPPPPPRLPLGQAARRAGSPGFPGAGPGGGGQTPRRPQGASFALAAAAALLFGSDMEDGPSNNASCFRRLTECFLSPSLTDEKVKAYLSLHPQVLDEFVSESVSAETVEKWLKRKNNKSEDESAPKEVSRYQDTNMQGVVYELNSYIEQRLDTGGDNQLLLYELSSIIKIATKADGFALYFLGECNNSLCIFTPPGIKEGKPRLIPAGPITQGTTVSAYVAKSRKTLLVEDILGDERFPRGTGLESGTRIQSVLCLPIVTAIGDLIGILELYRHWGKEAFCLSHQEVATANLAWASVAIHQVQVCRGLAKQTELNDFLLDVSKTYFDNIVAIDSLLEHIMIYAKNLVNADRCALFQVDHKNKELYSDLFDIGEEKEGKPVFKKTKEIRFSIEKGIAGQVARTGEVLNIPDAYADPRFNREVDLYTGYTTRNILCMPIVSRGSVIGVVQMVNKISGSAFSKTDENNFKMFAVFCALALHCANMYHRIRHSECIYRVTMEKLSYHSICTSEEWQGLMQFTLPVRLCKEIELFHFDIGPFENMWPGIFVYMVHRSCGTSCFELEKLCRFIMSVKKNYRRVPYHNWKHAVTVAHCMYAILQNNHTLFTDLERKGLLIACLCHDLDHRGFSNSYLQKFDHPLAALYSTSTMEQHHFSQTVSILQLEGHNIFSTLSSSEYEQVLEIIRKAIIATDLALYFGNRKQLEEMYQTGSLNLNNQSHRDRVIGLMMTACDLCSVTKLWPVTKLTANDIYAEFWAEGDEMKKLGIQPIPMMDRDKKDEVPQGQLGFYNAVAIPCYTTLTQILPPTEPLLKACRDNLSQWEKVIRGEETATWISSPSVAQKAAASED

Take `O=c1[nH]c(CCc2nc(-c3ccccc3)c[nH]2)nc2ccccc12` [Compound 14]: the IC50 fell in the range of 1 to 10 µM.
